Tested on: patients with advanced solid tumors
Assay: Treatment-related adverse events (CTCAE v5.0), phase I dose escalation
Type: in vivo
From the text: This study was a single‐arm, dose‐escalation phase I trial conducted in Sun Yat‐sen University Cancer Center in China. This study assessed CVL218 in patients with histologically or cytologically confirmed advanced solid tumors who were in PD after standard therapeutic regimens or lacked standard treatment options. Inclusion criteria included: age 18–75 years; with at least one measurable and evaluable target lesion per Response Evaluation Criteria in Solid Tumors 1.1 (RECIST 1.1); ECOG performance status of 0 or 1; adequate hematological, renal, cardiac, and hepatic functions and a life expectancy ≥12 weeks. Key exclusion criteria included prior usage of PARP inhibitors; allergic to the research drug or its components; with active, unstable systemic diseases or active, uncontrolled infection; a history of other malignancies within 5 years, and pregnant or lactating women.
CVL218 was administered orally, and this dose‐escalation trial included nine dose levels: 100 mg QD (50 mg BID), 200 mg QD (100 mg BID), 400 mg QD (200 mg BID), 700 mg QD (350 mg BID), 1000 mg QD (500 mg BID), 1200 mg QD (600 mg BID), 1400 mg QD (700 mg BID), 1700 mg QD (850 mg BID), and 2000 mg QD (1000 mg BID). Patients enrolled in the study received a single oral dose on the first day, followed by continuous multiple dosing (twice a day taking 12 h apart) after 72 h, with the treatment cycle lasting 4 weeks. The period during which patients received a single dose is designated as cycle 0 (C0), lasting 72 h. After this period, patients begin multiple dosing, referred to as cycle 1 (C1). An initial accelerated titration design was employed for the three lowest dose groups, and the “3+3” design was applied starting with the 300 mg BID cohort.
The primary objectives were to assess safety and tolerability as well as to determine the MTD, DLT, and dose recommended for further study. DLT was defined as any of the following events occurring during cycle 0 (including 72 h wash‐out period after a single dose) and cycle 1 per Common Terminology Criteria for Adverse Events (CTCAE) version 5.0: grade 4 anemia; grade 4 neutropenia; grade 3 neutropenia with fever ≥38.5°C; grade 4 thrombocytopenia; grade 3 thrombocytopenia associated with bleeding; grade ≥2 neurotoxicity; any other grade ≥3 nonhematological toxicities (excluding alopecia). The secondary objectives were to assess the PK and preliminary efficacy of CVL218.
Subjects who received at least one dose of CVL218 with postadministration safety records were included in safety analysis set. Subjects who received at least one dose of CVL218 with at least one evaluable PK parameter were included in PK analysis set. Per‐protocol set were used for efficacy analysis. Descriptive statistics of safety were presented per CTCAE v5.0. The PK parameters T max and T 1/2 were shown as the median (min, max) and mean ± SD, respectively. A two‐sided p < 0.05 was considered to indicate statistical significance. Statistical analysis was performed by using GraphPad prism 8.0.2 and R‐4.3.3.

CNCc1ccc(-c2cc3cc(F)cc(C(N)=O)c3o2)cc1.Cl [CVL218]
Musculoskeletal discomfort (850 mg BID, ≥G3): 0 n (%)
Musculoskeletal disorders (850 mg BID, ≥G3): 0 n (%)
Nausea (850 mg BID, ≥G3): 0 n (%)
Nervous system disorders (850 mg BID, ≥G3): 0 n (%)
Neutrophil count decreased (850 mg BID, ≥G3): 0 n (%)
Neutrophil count increased (850 mg BID, ≥G3): 0 n (%)
Palpitations (850 mg BID, ≥G3): 0 n (%)
Protein urine present (850 mg BID, ≥G3): 0 n (%)
Proteinuria (850 mg BID, ≥G3): 0 n (%)
Rash (850 mg BID, ≥G3): 0 n (%)
Renal & urinary disorders (850 mg BID, ≥G3): 0 n (%)
Renal failure (850 mg BID, ≥G3): 0 n (%)
Reproductive disorders (850 mg BID, ≥G3): 0 n (%)
Skin disorders (850 mg BID, ≥G3): 0 n (%)
Urinary occult blood positive (850 mg BID, ≥G3): 0 n (%)
Vomiting (850 mg BID, ≥G3): 0 n (%)
WBC count decreased (850 mg BID, ≥G3): 0 n (%)
WBC count increased (850 mg BID, ≥G3): 0 n (%)
ALT increased (All (N = 26), ALL): 4 (15.4) n (%)
AST increased (All (N = 26), ALL): 2 (7.7) n (%)
Abdominal distension (All (N = 26), ALL): 1 (3.8) n (%)
Abdominal pain (All (N = 26), ALL): 1 (3.8) n (%)
Abdominal pain upper (All (N = 26), ALL): 1 (3.8) n (%)
Amylase increased (All (N = 26), ALL): 2 (7.7) n (%)
Anemia (All (N = 26), ALL): 2 (7.7) n (%)
Any AE related to study drug (All (N = 26), ALL): 26 (100) n (%)
Asthenia (All (N = 26), ALL): 2 (7.7) n (%)
Blood creatinine increased (All (N = 26), ALL): 5 (19.2) n (%)
Blood system disorders (All (N = 26), ALL): 2 (7.7) n (%)
Blood triglycerides increased (All (N = 26), ALL): 1 (3.8) n (%)
Blood urea increased (All (N = 26), ALL): 1 (3.8) n (%)
Cardiac disorders (All (N = 26), ALL): 1 (3.8) n (%)
Chest discomfort (All (N = 26), ALL): 2 (7.7) n (%)
Constipation (All (N = 26), ALL): 2 (7.7) n (%)
Decreased appetite (All (N = 26), ALL): 5 (19.2) n (%)
Diarrhea (All (N = 26), ALL): 10 (38.5) n (%)
Dizziness (All (N = 26), ALL): 3 (11.5) n (%)
Erectile dysfunction (All (N = 26), ALL): 1 (3.8) n (%)
Gastrointestinal disorders (All (N = 26), ALL): 24 (92.3) n (%)
General disorders (All (N = 26), ALL): 4 (15.4) n (%)
Gingival bleeding (All (N = 26), ALL): 1 (3.8) n (%)
Granulocyte count increased (All (N = 26), ALL): 1 (3.8) n (%)
Headache (All (N = 26), ALL): 2 (7.7) n (%)
Hypoalbuminemia (All (N = 26), ALL): 2 (7.7) n (%)
Infusion site pain (All (N = 26), ALL): 1 (3.8) n (%)
Laboratory test disorders (All (N = 26), ALL): 15 (57.7) n (%)
Limb discomfort (All (N = 26), ALL): 1 (3.8) n (%)
Lipase increased (All (N = 26), ALL): 6 (23.1) n (%)
Metabolic disorders (All (N = 26), ALL): 6 (23.1) n (%)
Musculoskeletal discomfort (All (N = 26), ALL): 1 (3.8) n (%)
Musculoskeletal disorders (All (N = 26), ALL): 1 (3.8) n (%)
Nausea (All (N = 26), ALL): 20 (76.9) n (%)
Nervous system disorders (All (N = 26), ALL): 4 (15.4) n (%)
Neutrophil count decreased (All (N = 26), ALL): 1 (3.8) n (%)
Neutrophil count increased (All (N = 26), ALL): 2 (7.7) n (%)
Palpitations (All (N = 26), ALL): 1 (3.8) n (%)
Protein urine present (All (N = 26), ALL): 1 (3.8) n (%)
Proteinuria (All (N = 26), ALL): 6 (23.1) n (%)
Rash (All (N = 26), ALL): 3 (11.5) n (%)
Renal & urinary disorders (All (N = 26), ALL): 7 (26.9) n (%)
Renal failure (All (N = 26), ALL): 3 (11.5) n (%)
Reproductive disorders (All (N = 26), ALL): 1 (3.8) n (%)
Skin disorders (All (N = 26), ALL): 3 (11.5) n (%)
Urinary occult blood positive (All (N = 26), ALL): 1 (3.8) n (%)
Vomiting (All (N = 26), ALL): 20 (76.9) n (%)
WBC count decreased (All (N = 26), ALL): 1 (3.8) n (%)
WBC count increased (All (N = 26), ALL): 2 (7.7) n (%)
ALT increased (All (N = 26), ≥G3): 0 n (%)
AST increased (All (N = 26), ≥G3): 0 n (%)
Abdominal distension (All (N = 26), ≥G3): 0 n (%)
Abdominal pain (All (N = 26), ≥G3): 1 (3.8) n (%)
Abdominal pain upper (All (N = 26), ≥G3): 0 n (%)
Amylase increased (All (N = 26), ≥G3): 0 n (%)
Anemia (All (N = 26), ≥G3): 0 n (%)
Any AE related to study drug (All (N = 26), ≥G3): 4 (15.4) n (%)
Asthenia (All (N = 26), ≥G3): 0 n (%)
Blood creatinine increased (All (N = 26), ≥G3): 3 (11.5) n (%)
Blood system disorders (All (N = 26), ≥G3): 0 n (%)
Blood triglycerides increased (All (N = 26), ≥G3): 0 n (%)
Blood urea increased (All (N = 26), ≥G3): 1 (3.8) n (%)
Cardiac disorders (All (N = 26), ≥G3): 0 n (%)
Chest discomfort (All (N = 26), ≥G3): 0 n (%)
Constipation (All (N = 26), ≥G3): 0 n (%)
Decreased appetite (All (N = 26), ≥G3): 0 n (%)
Diarrhea (All (N = 26), ≥G3): 0 n (%)
Dizziness (All (N = 26), ≥G3): 0 n (%)
Erectile dysfunction (All (N = 26), ≥G3): 0 n (%)
Gastrointestinal disorders (All (N = 26), ≥G3): 1 (3.8) n (%)
General disorders (All (N = 26), ≥G3): 0 n (%)
Gingival bleeding (All (N = 26), ≥G3): 0 n (%)
Granulocyte count increased (All (N = 26), ≥G3): 0 n (%)
Headache (All (N = 26), ≥G3): 0 n (%)
Hypoalbuminemia (All (N = 26), ≥G3): 0 n (%)
Infusion site pain (All (N = 26), ≥G3): 0 n (%)
Laboratory test disorders (All (N = 26), ≥G3): 4 (15.4) n (%)
Limb discomfort (All (N = 26), ≥G3): 0 n (%)
Lipase increased (All (N = 26), ≥G3): 1 (3.8) n (%)
Metabolic disorders (All (N = 26), ≥G3): 0 n (%)
Musculoskeletal discomfort (All (N = 26), ≥G3): 0 n (%)
Musculoskeletal disorders (All (N = 26), ≥G3): 0 n (%)
Nausea (All (N = 26), ≥G3): 0 n (%)
Nervous system disorders (All (N = 26), ≥G3): 0 n (%)
Neutrophil count decreased (All (N = 26), ≥G3): 0 n (%)
Neutrophil count increased (All (N = 26), ≥G3): 0 n (%)
Palpitations (All (N = 26), ≥G3): 0 n (%)
Protein urine present (All (N = 26), ≥G3): 0 n (%)
Proteinuria (All (N = 26), ≥G3): 0 n (%)
Rash (All (N = 26), ≥G3): 0 n (%)
Renal & urinary disorders (All (N = 26), ≥G3): 0 n (%)
Renal failure (All (N = 26), ≥G3): 0 n (%)
Reproductive disorders (All (N = 26), ≥G3): 0 n (%)
Skin disorders (All (N = 26), ≥G3): 0 n (%)
Urinary occult blood positive (All (N = 26), ≥G3): 0 n (%)
Vomiting (All (N = 26), ≥G3): 0 n (%)
WBC count decreased (All (N = 26), ≥G3): 0 n (%)
WBC count increased (All (N = 26), ≥G3): 0 n (%)
TRAE of any grade: diarrhea (all 26 patients): 38.5%
TRAE of any grade: lipase increased (all 26 patients): 23.1%
TRAE of any grade: nausea (all 26 patients): 76.9%
TRAE of any grade: proteinuria (all 26 patients): 23.1%
TRAE of any grade: vomiting (all 26 patients): 76.9%
patients with ≥grade 3 TRAEs (all 26 patients): 15.4%
≥grade 3 TRAE: abdominal pain (all 26 patients): 3.8%
anemia of grade 3 or more severe (in vivo): None of the anemias were of grade 3 or more severe
grade ≥3 gastrointestinal AEs (in vivo): 3.8%
patients with gastrointestinal reactions (in vivo): 92.3%
≥grade 3 TRAE: blood creatinine increased (in vivo): 11.5%
≥grade 3 TRAE: blood urea increased (in vivo): 3.8%
≥grade 3 TRAE: lipase increased (in vivo): 3.8%

Source: paper PMC12238723, “Phase I Clinical Trial of CVL218, a Novel PARP1/2 Inhibitor, in Patients with Advanced Solid Tumors” (MedComm, 2025)
